# Data reported in patent US6294547A, “Naphthyridine deratives or salts thereof” (Nippon Kayaku Kabushiki Kaisha, priority 1997, dated 2001).
# Structures can show the parent of a compound that is named as a salt.
# Legend:
# NK-1 receptors = biological target: T1, NK-1 receptors (Cavia porcellus, UniProt P30547); assay: Antagonism for NK-1 receptor (methylsubstance P induced contraction of isolated ileum); type: cell-based, Hartley strain male guinea pigs; settings: guinea pig ileum; methylsubstance P 1×10^-9 M; 35 min incubation; read-out: IC50 of a drug on methylsubstance P induced contraction
# T1 construct: the ileums were isolated; from tissue; host or cells: isolated ileum of male Hartley guinea pigs
# Method: Hartley strain male guinea pigs were killed by a blow on the head and blood-letting, and the ileums were isolated. A specimen of about 3 cm in length was prepared and then suspended at a tension of 0.5 gw in a 15 magunus bath with an internal volume of 15 ml containing Krebs-Henseleit solution of 37° C. while introducing a mixed gas of 95% O2 +5% CO2 into the bath. As the Krebs-Henseleit solution, that containing atropine (1×10^-6 M) and indomethacin (5×10^-6 M) was used for preventing the participation of intrinsic acetylcholine and prostaglandins. Methylsubstance P (1×10^-9 M), a specific stimulating agent for NK-1 receptors were repeatedly allowed to act on the specimen at intervals of 40 minutes. After the percentage of contraction due to methylsubstance P became constant, a drug was added to the solution to each of various concentrations, followed by incubation for 35 minutes, and methyl-substance P was allowed to act on the specimen again. The rate of inhibition by the drug was determined relative to the percentage of contraction immediately before the addition of the drug, and the 50% inhibitory concentration (IC50) of the drug was determined by means of a regression line.
# NK-3 receptors = biological target: T2, NK-3 receptors (Cavia porcellus, UniProt P30098); assay: Antagonism for NK-3 receptors (senktide induced contraction of isolated ileum); type: cell-based, Hartley strain male guinea pigs; settings: guinea pig ileum; senctide 1×10^-9 M; 35 min incubation; read-out: IC50 of a drug on senctide induced contraction
# T2 construct: the ileums were isolated; from tissue; host or cells: isolated ileum of male Hartley guinea pigs
# T2 sequence (P30098 1-440): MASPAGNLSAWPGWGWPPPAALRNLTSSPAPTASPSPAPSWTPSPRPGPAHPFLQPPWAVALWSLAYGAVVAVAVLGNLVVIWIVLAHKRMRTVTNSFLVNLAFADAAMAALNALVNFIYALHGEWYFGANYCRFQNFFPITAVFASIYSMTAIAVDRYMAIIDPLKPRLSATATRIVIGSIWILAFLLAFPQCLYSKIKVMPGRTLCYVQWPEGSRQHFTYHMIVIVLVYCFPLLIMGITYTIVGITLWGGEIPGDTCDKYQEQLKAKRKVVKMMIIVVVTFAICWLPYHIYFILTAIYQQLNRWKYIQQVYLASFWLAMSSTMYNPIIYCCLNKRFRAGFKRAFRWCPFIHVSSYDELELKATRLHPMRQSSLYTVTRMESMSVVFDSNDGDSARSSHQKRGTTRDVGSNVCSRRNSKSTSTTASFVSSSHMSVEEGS
# Method: Hartley strain male guinea pigs were killed by a blow on the head and blood-letting, and the ileums were isolated. A specimen of about 3 cm in length was prepared and then suspended at a tension of 0.5 gw in a magunus bath with an internal volume of 15 ml containing Krebs-Henseleit solution of 37° C. while introducing a mixed gas of 95% O2 and 5% CO2 into the bath. As the Krebs-Henseleit solution, that containing atropine (1×10^-6 M) and indomethacin (5×10^-6 M) was used for preventing the participation of intrinsic acetylcholine and prostaglandins. Senctide (1×10^-9 M), a specific stimulating agent for NK-3 receptors was repeatedly allowed to act on the specimen at intervals of 50 minutes. After the percentage of contraction due to senctide became constant, a drug was added to the solution to each of various concentrations, followed by incubation for 35 minutes, and senctide was allowed to act on the specimen again. The rate of inhibition by the drug was determined relative to the percentage of contraction immediately before the addition of the drug, and the 50% inhibitory concentration (IC50) was determined by means of a regression line.
# NK-2 receptors = assay: Inhibitory effect on bronchoconstriction caused by stimulation of NK-2 receptors (Nle10 neurokinin A (4-10)); type: in vivo, Hartley strain male guinea pigs
# Method: There were used non-treated Hartley strain male guinea pigs and Hartley strain male guinea pigs received to active sensitization by subcutaneous administration of 30 mg/kg of ovalbumin 14 to 21 days before. The guinea pigs were anesthetized with pentobarbital and a tube was inserted into the trachea of each guinea pig. The guinea pigs were subjected to positive pressure respiration by means of an artificial respiratory apparatus at 10 ml/kg and 60 times/minute. The pressure in the edge of the tube in the trachea was measured as an indication of bronchoconstriction. Spontaneous respiration was inhibited by administering succinylcholine. The non-treated guinea pigs were repeatedly and intravenously injected with 2 nmol/kg of Nle10 neurokinin A (4-10), a specific stimulating agent for NK-2 receptors at intervals of 10 minutes. After the bronchoconstriction thus caused became stable, each drug was administered intravenously, orally or in duodenum. Nle10 neurokinin A (4-10) was intravenously injected again 3 minutes after the intravenous administration or 50 minutes after the oral administration or the administration in duodenum. The rate of inhibition by the drug was determined relative to the bronchoconstriction before the drug administration.
# [1] = system: bronchoconstriction caused by inhalation of an antigen; assay: Inhibitory effect on bronchoconstriction caused by inhalation of antigen (ovalbumin); type: in vivo, Hartley strain male guinea pigs (active sensitization); settings: 10 μmol/kg oral, 50 min before antigen inhalation; measured 8 min after
# Method: There were used non-treated Hartley strain male guinea pigs and Hartley strain male guinea pigs received to active sensitization by subcutaneous administration of 30 mg/kg of ovalbumin 14 to 21 days before. The guinea pigs were anesthetized with pentobarbital and a tube was inserted into the trachea of each guinea pig. The guinea pigs were subjected to positive pressure respiration by means of an artificial respiratory apparatus at 10 ml/kg and 60 times/minute. The pressure in the edge of the tube in the trachea was measured as an indication of bronchoconstriction. Spontaneous respiration was inhibited by administering succinylcholine. […] The rate of inhibition by the drug was determined relative to the bronchoconstriction before the drug administration.
# To the guinea pigs received to active sensitization, 4.6 μmol/kg of phosphoramidon was intravenously administered, and 15 minutes after the administration, these guinea pigs were allowed to inhale for 2 minutes an aerosol of an antigen ovalbumin solution (2 mg/ml) produced with an ultrasonic nebulizer, to cause bronchoconstriction. […] The inhibition rate of the drug-treated group was determined relative to the bronchoconstriction of the solvent-treated group measured 8 minutes after the antigen inhalation.
# Mouse = assay: Toxic effect on mouse, intravenous; type: in vivo
# Source text: The toxicity of the compounds of the present invention was investigated.
# T1 sequence (P30547 whole entry): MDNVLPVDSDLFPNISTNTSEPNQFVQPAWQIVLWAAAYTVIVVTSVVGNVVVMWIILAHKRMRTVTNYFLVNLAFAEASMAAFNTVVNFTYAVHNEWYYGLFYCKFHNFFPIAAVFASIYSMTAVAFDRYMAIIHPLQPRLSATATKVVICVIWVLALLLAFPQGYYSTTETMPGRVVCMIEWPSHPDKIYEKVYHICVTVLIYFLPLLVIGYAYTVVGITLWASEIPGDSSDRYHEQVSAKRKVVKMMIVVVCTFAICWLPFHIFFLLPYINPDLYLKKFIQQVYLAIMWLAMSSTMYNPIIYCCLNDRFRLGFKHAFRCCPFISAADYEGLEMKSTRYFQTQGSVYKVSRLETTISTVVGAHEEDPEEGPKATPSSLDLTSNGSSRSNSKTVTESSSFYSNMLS
structure (smiles),measurement,setting,value
"CN(CC(CCN1CCc2nc3c(cc2C1)CCCC3)c1ccc(Cl)c(Cl)c1)C(=O)c1ccccc1 (single isomer, unassigned) [Example 25, 2-[(-)-4-(N-benzoyl-N-methyl)amino-3-(3,4-dichlorophenylbutyll-1,2,3,4,6,7,8,9-octahydro-benzo[b][1,6]naphthyridine fumarate]",IC50,NK-1 receptors,470 nM
same,IC50,NK-3 receptors,180 nM
same,"Inhibition (rate), stimulation of NK-2 receptors","NK-2 receptors; 1 μmol/kg intravenous, 3 min after administration",94.2%
same,"Inhibition (rate), stimulation of NK-2 receptors","NK-2 receptors; 8 μmol/kg oral, 50 min after administration",67.2%
same,"Inhibition (rate), inhalation of antigen",[1],54.1%
same,Toxicity,Mouse; 22 μmol/kg intravenous,None
same,Toxicity,Mouse; 65 μmol/kg intravenous,None
